Data from US20060264460A1 (Wyeth, priority 2005, published 2006).

These compounds were tested against T1, human Cot/Tpl2 kinase (Homo sapiens, UniProt P41279) (assay: Tpl2/Cot kinase assay: GST-MEK1 phosphorylation detected by ELISA (DELFIA Eu)). Settings: 0.4 nM Tpl2, 35 nM GST-MEK1, 50 uM ATP, 1 h at 30° C.
T1 construct: human Cot/Tpl2 kinase construct encoding residues 30-398; 6His (N); made in house; host or cells: Sf9 insect cells, baculovirus system (BD Biosciences)
T1 sequence (P41279 30-398): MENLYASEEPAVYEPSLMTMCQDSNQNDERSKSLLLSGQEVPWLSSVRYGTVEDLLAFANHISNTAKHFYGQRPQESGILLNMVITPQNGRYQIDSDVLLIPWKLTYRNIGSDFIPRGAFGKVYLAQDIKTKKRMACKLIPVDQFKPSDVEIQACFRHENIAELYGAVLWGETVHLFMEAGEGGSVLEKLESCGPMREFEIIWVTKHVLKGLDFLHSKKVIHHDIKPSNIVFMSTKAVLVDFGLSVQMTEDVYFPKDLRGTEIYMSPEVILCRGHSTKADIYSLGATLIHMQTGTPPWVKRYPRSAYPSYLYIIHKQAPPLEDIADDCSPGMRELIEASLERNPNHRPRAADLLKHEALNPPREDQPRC
Assay type: biochemical
Procedure, shortened: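 Substrate phosphorylation (GST-MEK1 Ser217/221) quantified by DELFIA europium ELISA, yielding IC50 values. Reaction: 1 h at 30° C, pH 7.2 MOPS buffer, 50 uM ATP, 35 nM GST-MEK1, 0.4 nM monomeric His-Tpl2 purified from Sf9 cells, compounds at 1% final DMSO; stopped with EDTA.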
Work on `N#Cc1cnc2c(Cl)cc(NCc3cnc[nH]3)cc2c1Nc1ccc(F)c(Cl)c1` [Example 177, 6-((1H-imidazol-5-yl)methylamino)-8-chloro-4-(3-chloro-4-fluorophenylamino)quinoline-3-carbonitrile] yielded an IC50 of 10 nM.
`N#Cc1cnc2c(Cl)cc(NCc3cccnc3)cc2c1Nc1ccc(F)c(Cl)c1` [Example 178, 8-chloro-4-(3-chloro-4-fluorophenylamino)-6-(pyridin-3-ylmethylamino)quinoline-3-carbonitrile] showed an IC50 of 16 nM.
`CC(Nc1ccc2ncc(C#N)c(Nc3ccc(F)c(Cl)c3)c2c1)c1cnc[nH]1` (stereo not shown) [Example 179, 6-(1-(1H-imidazol-5-yl)ethylamino)-4-(3-chloro-4-fluorophenylamino)quinoline-3-carbonitrile] gave an IC50 of 3900 nM.
In the case of `CC(C)(C)S(=O)(=O)Nc1c(C#N)cnc2ccc(NCc3cnc[nH]3)cc12` [Example 180, N-(6-((1H-imidazol-5-yl)methylamino)-3-cyanoquinolin-4-yl)-2-methylpropane-2-sulfonamide], the IC50 is reported as > 40000 nM.
`N#Cc1cnc2c(O)cc(NCc3cnc[nH]3)cc2c1Nc1ccc(F)c(Cl)c1` [Example 181, 6-((1H-imidazol-5-yl)methylamino)-4-(3-chloro-4-fluorophenylamino) 8-hydroxyquinoline-3-carbonitrile] gave an IC50 of 11300 nM.
`N#Cc1cnc2c(Cl)cc(NCc3cccc[n+]3[O-])cc2c1Nc1ccc(F)c(Cl)c1` [Example 182, 8-chloro-4-[(3-chloro-4-fluorophenyl)amino]-6-{[(1-oxidopyridin-2-yl)methyl]amino}quinoline-3-carbonitrile] gave an IC50 of 18 nM.
Compound `Cc1c(CNc2cc(Cl)c3ncc(C#N)c(Nc4ccc(F)c(Cl)c4)c3c2)ncn1C` [Example 183, 8-chloro-4-(3-chloro-4-fluorophenylamino)-6-((1,5-dimethyl-1H-imidazol-4-yl)methylamino)quinoline-3-carbonitrile] has an IC50 of 22 nM.
With `CS(=O)(=O)c1ccc(CNc2cc(Cl)c3ncc(C#N)c(Nc4ccc(F)c(Cl)c4)c3c2)cc1` [Example 184, 6-(4-(methylsulfonyl)benzylamino)-8-chloro-4-(3-chloro-4-fluorophenylamino)quinoline-3-carbonitrile] the IC50 was 110 nM.
Work on `CS(=O)(=O)c1cccc(CNc2cc(Cl)c3ncc(C#N)c(Nc4ccc(F)c(Cl)c4)c3c2)c1` [Example 185, 6-(3-(methylsulfonyl)benzylamino)-8-chloro-4-(3-chloro-4-fluorophenylamino)quinoline-3-carbonitrile] yielded an IC50 of 47 nM.
`N#Cc1cnc2c(Cl)cc(NCc3ccc(S(N)(=O)=O)cc3)cc2c1Nc1ccc(F)c(Cl)c1` [Example 186, 4-((8-chloro-4-(3-chloro-4-fluorophenylamino)-3-cyanoquinolin-6-ylamino)methyl)benzenesulfonamide] was tested, and the IC50 was 45 nM.
`N#Cc1cnc2c(Cl)cc(NCc3cn4ccccc4n3)cc2c1Nc1ccc(F)c(Cl)c1` [Example 187, 6-((H-imidazo[1,2-a]pyridin-2-yl)methylamino)-8-chloro-4-(3-chloro-4-fluorophenylamino)quinoline-3-carbonitrile] showed an IC50 of 130 nM.
`N#Cc1cnc2c(Cl)cc(NCc3cc4n(n3)CCO4)cc2c1Nc1ccc(F)c(Cl)c1` [Example 188, 8-chloro-4-(3-chloro-4-fluorophenylamino)-6-((2,3-dihydropyrazolo[5,1-b]oxazol-6-yl)methylamino)quinoline-3-carbonitrile] showed an IC50 of 59 nM.
In the case of `N#Cc1cnc2c(Cl)cc(NCc3cc4n(n3)CCC4)cc2c1Nc1ccc(F)c(Cl)c1` [Example 189, 8-chloro-4-(3-chloro-4-fluorophenylamino)-6-((5,6-dihydro-4H-pyrrolo[1,2-b]pyrazol-2-yl)methylamino)quinoline-3-carbonitrile], the IC50 is reported as 100 nM.
Compound `CCc1nc(CNc2cc(Cl)c3ncc(C#N)c(Nc4ccc(F)c(Cl)c4)c3c2)c(C)[nH]1` [Example 190, 8-chloro-4-(3-chloro-4-fluorophenylamino)-6-((2-ethyl-5-methyl-1H-imidazol-4-yl)methylamino)quinoline-3-carbonitrile] has an IC50 of 320 nM.
Work on `Cc1nc(CNc2cc(Cl)c3ncc(C#N)c(Nc4ccc(F)c(Cl)c4)c3c2)cn1CC(N)=O` [Example 191, 2-(4-((8-chloro-4-(3-chloro-4-fluorophenylamino)-3-cyanoquinolin-6-ylamino)methyl)-2-methyl-1H-imidazol-1-yl)acetamide] yielded an IC50 of 64 nM.
Work on `Cc1cccc(CNc2cc(Cl)c3ncc(C#N)c(Nc4ccc(F)c(Cl)c4)c3c2)n1` [Example 192, 8-chloro-4-(3-chloro-4-fluorophenylamino)-6-((6-methylpyridin-2-yl)methylamino)quinoline-3-carbonitrile] yielded an IC50 of 170 nM.
Compound `CCc1nc(CNc2cc(Cl)c3ncc(C#N)c(Nc4ccc(F)c(Cl)c4)c3c2)cn1CC(N)=O` [Example 193, 2-(4-((8-chloro-4-(3-chloro-4-fluorophenylamino)-3-cyanoquinolin-6-ylamino)methyl)-2-ethyl-1H-imidazol-1-yl)acetamide] has an IC50 of 410 nM.
With `CCc1nc(CNc2cc(Cl)c3ncc(C#N)c(Nc4ccc(F)c(Cl)c4)c3c2)c(C)n1C(=O)OC(C)(C)C` [Example 194, tert-butyl 4-((8-chloro-4-(3-chloro-4-fluorophenylamino)-3-cyanoquinolin-6-ylamino)methyl)-2-ethyl-5-methyl-1H-imidazole-1-carboxylate] the IC50 was 9700 nM.
Work on `Cc1cccc(CNc2cc(Cl)c3ncc(C#N)c(Nc4ccc(F)c(Cl)c4)c3c2)[n+]1[O-]` [Example 195, 8-chloro-4-[(3-chloro-4-fluorophenyl)amino]-6-{[(6-methyl-1-oxidopyridin-2-yl)methyl]amino}quinoline-3-carbonitrile] yielded an IC50 of 32 nM.
In the case of `Cc1ccc[n+]([O-])c1CNc1cc(Cl)c2ncc(C#N)c(Nc3ccc(F)c(Cl)c3)c2c1` [Example 196, 8-chloro-4-[(3-chloro-4-fluorophenyl)amino]-6-{[(3-methyl-1-oxidopyridin-2-yl)methyl]amino}quinoline-3-carbonitrile], the IC50 is reported as 66 nM.
`N#Cc1cnc2c(Cl)cc(NCc3c(CCCO)ncn3COCc3ccccc3)cc2c1Nc1ccc(F)c(Cl)c1` [Example 198, 6-({[1-[(benzyloxy)methyl]-4-(3-hydroxypropyl)-1H-imidazol-5-yl]methyl}amino)-8-chloro-4-[(3-chloro-4-fluorophenyl)amino]quinoline-3-carbonitrile] gave an IC50 of 870 nM.
`CCNc1cc(Cl)c2ncc(C#N)c(Nc3ccc(F)c(Cl)c3)c2c1` [Example 199, 8-chloro-4-[(3-chloro-4-fluorophenyl)amino]-6-(ethylamino)quinoline-3-carbonitrile] showed an IC50 of 1400 nM.
`N#Cc1cnc2c(Cl)cc(NCCc3nnn[nH]3)cc2c1Nc1ccc(F)c(Cl)c1` [Example 200, 8-chloro-4-[(3-chloro-4-fluorophenyl)amino]-6-{[2-(1H-tetrazol-5-yl)ethyl]amino}quinoline-3-carbonitrile] was tested, and the IC50 was 68 nM.
In the case of `Cn1cnc(CNc2cc(Cl)c3ncc(C#N)c(Nc4ccc(F)c(Cl)c4)c3c2)c1` [Example 201, 8-chloro-4-[(3-chloro-4-fluorophenyl)amino]-6-{[(1-methyl-1H-imidazol-4-yl)methyl]amino}quinoline-3-carbonitrile], the IC50 is reported as 9.1 nM.
`N#Cc1cnc2c(Cl)cc(NCC3=NCCN3)cc2c1Nc1ccc(F)c(Cl)c1` [Example 204, 8-chloro-4-[(3-chloro-4-fluorophenyl)amino]-6-[(4,5-dihydro-1H-imidazol-2-ylmethyl)amino]quinoline-3-carbonitrile] gave an IC50 of 2600 nM.
